Measured values published in ChEMBL document CHEMBL1143194, “The 1,4-benzodiazepine-2,5-dione small molecule template results in melanocortin receptor agonists with nanomolar potencies” (J Med Chem, 2008).

Tests used:
[1] = biological target: Melanocortin receptor 3 (Mus musculus) (UniProt P33033); assay: Agonist activity at mouse MC3R expressed in HEK293 cells assessed as forskolin-stimulated response at 100 uM by beta-galactosidase reporter gene assay relative to forskolin; assay type: functional, cell-based
Chain of Melanocortin receptor 3 (Mus musculus) (P33033 whole entry): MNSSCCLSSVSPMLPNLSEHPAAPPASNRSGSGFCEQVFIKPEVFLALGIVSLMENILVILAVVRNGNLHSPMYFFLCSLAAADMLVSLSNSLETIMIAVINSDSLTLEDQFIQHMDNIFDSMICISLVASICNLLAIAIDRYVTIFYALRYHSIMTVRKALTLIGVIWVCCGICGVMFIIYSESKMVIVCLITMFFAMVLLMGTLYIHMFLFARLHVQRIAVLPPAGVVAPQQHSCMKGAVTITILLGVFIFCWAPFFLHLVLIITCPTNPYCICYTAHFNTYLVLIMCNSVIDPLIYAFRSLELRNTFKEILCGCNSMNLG

Melanocortin receptor 5 = Melanocortin receptor 5 (Mus musculus, UniProt P41149); assay: Agonist activity at mouse MC5R expressed in HEK293 cells assessed as forskolin-stimulated response by beta-galactosidase reporter gene assay; assay type: functional, cell-based
Chain of Melanocortin receptor 5 (P41149 whole entry): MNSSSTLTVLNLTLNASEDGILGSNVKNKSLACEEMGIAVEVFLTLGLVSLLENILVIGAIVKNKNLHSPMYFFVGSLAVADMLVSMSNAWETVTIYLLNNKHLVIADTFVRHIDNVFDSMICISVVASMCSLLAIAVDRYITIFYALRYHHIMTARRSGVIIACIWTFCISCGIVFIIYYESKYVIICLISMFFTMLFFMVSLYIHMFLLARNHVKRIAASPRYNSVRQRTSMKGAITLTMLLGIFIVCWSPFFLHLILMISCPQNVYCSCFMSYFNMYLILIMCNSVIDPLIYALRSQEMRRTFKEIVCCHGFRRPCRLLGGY

Melanocortin receptor 4 = Melanocortin receptor 4 (Mus musculus, UniProt P56450); assay: Agonist activity at mouse MC4R expressed in HEK293 cells assessed as forskolin-stimulated response by beta-galactosidase reporter gene assay; assay type: functional, cell-based
Chain of Melanocortin receptor 4 (P56450 whole entry): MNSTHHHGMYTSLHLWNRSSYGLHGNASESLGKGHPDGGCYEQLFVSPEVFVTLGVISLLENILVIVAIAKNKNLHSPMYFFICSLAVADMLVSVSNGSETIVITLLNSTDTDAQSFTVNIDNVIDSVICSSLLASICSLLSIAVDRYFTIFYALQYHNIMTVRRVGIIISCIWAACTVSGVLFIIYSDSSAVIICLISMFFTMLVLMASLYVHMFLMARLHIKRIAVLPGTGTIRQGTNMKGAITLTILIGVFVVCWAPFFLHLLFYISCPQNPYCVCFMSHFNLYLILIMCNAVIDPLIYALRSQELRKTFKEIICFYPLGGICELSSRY

[2] = biological target: Melanocyte-stimulating hormone receptor (Mus musculus, UniProt Q01727); assay: Agonist activity at mouse MC1R expressed in HEK293 cells assessed as forskolin-stimulated response by beta-galactosidase reporter gene assay; assay type: functional, cell-based
Chain of Melanocyte-stimulating hormone receptor (Q01727 whole entry): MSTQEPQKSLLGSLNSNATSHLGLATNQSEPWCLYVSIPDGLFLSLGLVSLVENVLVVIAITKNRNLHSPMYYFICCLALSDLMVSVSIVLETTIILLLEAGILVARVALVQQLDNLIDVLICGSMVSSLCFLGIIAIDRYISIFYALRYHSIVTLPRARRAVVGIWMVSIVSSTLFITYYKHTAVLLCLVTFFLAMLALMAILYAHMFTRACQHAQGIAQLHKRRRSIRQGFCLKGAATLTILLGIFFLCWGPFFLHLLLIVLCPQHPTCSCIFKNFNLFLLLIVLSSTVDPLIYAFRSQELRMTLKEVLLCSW

Melanocortin receptor 3 = Melanocortin receptor 3 (Mus musculus, UniProt P33033); assay: Agonist activity at mouse MC3R expressed in HEK293 cells assessed as forskolin-stimulated response by beta-galactosidase reporter gene assay; assay type: functional, cell-based
Chain of Melanocortin receptor 3 (P33033 whole entry): as the sequence (P33033 whole entry) above

[3] = biological target: Melanocortin receptor 4 (Mus musculus) (UniProt P56450); assay: Agonist activity at mouse MC4R expressed in HEK293 cells assessed as forskolin-stimulated response at 100 uM by beta-galactosidase reporter gene assay relative to forskolin; assay type: functional, cell-based
Chain of Melanocortin receptor 4 (Mus musculus) (P56450 whole entry): as the sequence (P56450 whole entry) above

[4] = biological target: Melanocortin receptor 5 (Mus musculus) (UniProt P41149); assay: Agonist activity at mouse MC5R expressed in HEK293 cells assessed as forskolin-stimulated response at 10 uM by beta-galactosidase reporter gene assay relative to forskolin; assay type: functional, cell-based
Chain of Melanocortin receptor 5 (Mus musculus) (P41149 whole entry): as the sequence (P41149 whole entry) above

Mus musculus [5] = species on record: Mus musculus; assay: Selectivity for mouse MC1R over mouse MC4R
[6] = biological target: Melanocortin receptor 5 (Mus musculus) (UniProt P41149); assay: Agonist activity at mouse MC5R expressed in HEK293 cells assessed as forskolin-stimulated response at 100 uM by beta-galactosidase reporter gene assay relative to forskolin; assay type: functional, cell-based
Mus musculus [7] = species on record: Mus musculus; assay: Selectivity for mouse MC1R over mouse MC3R
[8] = biological target: Melanocyte-stimulating hormone receptor (Mus musculus) (UniProt Q01727); assay: Agonist activity at mouse MC1R expressed in HEK293 cells assessed as forskolin-stimulated response at 100 uM by beta-galactosidase reporter gene assay relative to forskolin; assay type: functional, cell-based
Chain of Melanocyte-stimulating hormone receptor (Mus musculus) (Q01727 whole entry, looked up): as the sequence (Q01727 whole entry) above

Structure (SMILES)	EC50 (Melanocortin receptor 5)	EC50 (Melanocortin receptor 4)	EC50 [2]	EC50 (Melanocortin receptor 3)	also measured
CCCN1C(=O)C(Cc2ccccc2)NC(=O)c2ccccc21 (stereo not given)	3.27 µM	35 µM	6.9 µM		Activity [1]: 80%
NC(N)=NCCCC1NC(=O)c2ccccc2N(Cc2ccccc2)C1=O (stereo not given)	> 100 µM	> 100 µM	16.4 µM	> 100 µM	
O=C1NC(Cc2ccccc2)C(=O)N(Cc2ccccc2-c2ccccc2)c2ccccc21 (stereo not given)		1.97 µM	0.23 µM	4.16 µM	Ratio EC50 (Mus musculus [5]): 9; Activity [6]: 60%; Ratio EC50 (Mus musculus [7]): 18
O=C1NC(Cc2ccccc2)C(=O)N(Cc2ccc3ccccc3c2)c2cc(Cl)ccc21 (stereo not given)	4.35 µM		4.7 µM	23.3 µM	Activity [3]: 70%
NC(N)=NCCCC1NC(=O)c2ccc(Cl)cc2N(Cc2ccccc2)C1=O (stereo not given)	17 µM		1.8 µM	30.6 µM	
N=C(N)NCCCC1NC(=O)c2ccc(Cl)cc2N(Cc2ccccc2)C1=O (stereo not given)					Activity [3]: 60%
O=C1NC(Cc2c[nH]c3ccccc23)C(=O)N(Cc2ccccc2)c2ccccc21 (stereo not given)	> 100 µM	> 100 µM		> 100 µM	Activity [8]: 70%

Now from value to molecule, other results behind:

EC50 (Melanocortin receptor 5)	EC50 (Melanocortin receptor 4)	EC50 [2]	EC50 (Melanocortin receptor 3)	Structure (SMILES)	also measured
		3.4 µM		NCCCCC1NC(=O)c2ccc(Cl)cc2N(Cc2ccc3ccccc3c2)C1=O (stereo not given)	Activity [3]: 30%; Activity [1]: 30%; Activity [4]: 65%
> 100 µM	> 100 µM	21.6 µM	> 100 µM	Cc1cccc2c1N(Cc1ccccc1)C(=O)C(Cc1cn(Cc3ccccc3)c3ccccc13)NC2=O (stereo not given)	
> 100 µM	> 100 µM	32.9 µM	> 100 µM	O=C1NC(Cc2ccccc2)C(=O)N(Cc2ccccc2)c2ccccc21 (stereo not given)	
> 100 µM	> 100 µM	> 100 µM	> 100 µM	O=C1NC(Cc2c[nH]c3ccccc23)C(=O)N(Cc2ccc3ccccc3c2)c2cc(Cl)ccc21 (stereo not given)	
> 100 µM	> 100 µM		> 100 µM	CCCCN1C(=O)C(Cc2ccccc2)NC(=O)c2ccccc21 (stereo not given)	Activity [8]: 70%
0.087 µM	0.24 µM	0.048 µM	0.32 µM	NCCCCC1NC(=O)c2ccc(Cl)cc2N(Cc2ccccc2)C1=O (stereo not given)	
